{"source": "paper PMC8292346", "about": "“Dysfunction of the key ferroptosis-surveilling systems hypersensitizes mice to tubular necrosis during acute kidney injury” (Nature Communications, 2021)", "key": {"[1]": {"assay": "Inhibited co-autoxidation of egg phosphatidylcholine liposomes and STY-BODIPY (radical-trapping antioxidant activity)", "conditions": "2 µM Fer-1", "procedure": "Inhibitors were then added (5 μl aliquots) at desired concentrations to the appropriate wells followed by vigorous mixing. […] Experiments were performed in triplicate using HPLC grade solvents and kinetic data is given as an average of three independent measurements. […]"}, "[2]": {"test_system": "C57Bl/6 N mice", "assay": "Bilateral kidney ischemia-reperfusion injury, severe model (38 min ischemia), survival", "conditions": "single dose 2 mg/kg body weight before reperfusion"}, "[3]": {"test_system": "primary murine tubular cells", "assay": "RSL3-induced LDH release of primary kidney tubular cells", "format": "cell-based", "conditions": "primary renal tubular cells, RSL3 14 h", "procedure": "The LDH release of cells or of freshly isolated kidney tubules was measured according to manufacturers’ instructions at indicated time points. In brief, an aliquot of the supernatant was taken and Lysis Solution was added for 45 min to induce maximal LDH release before another aliquot of the supernatant was taken. Subsequently, the supernatants were incubated with CytoTox 96® Reagent for 15 min protected from light at room temperature before adding Stop Solution. Absorbance was measured at 490 nm.\nGeneration, cell culture, and induction of cell death in primary murine tubular cells. Murine tubular cells were generated by outgrowth from isolated renal tubules (see above). Primary murine tubules were placed in six-well plates containing Dulbecco’s Modified Eagle Medium F-12 Nutrient Mixture without phenol red (DMEM/F12, Thermo Fisher), supplemented with 0.01 mg/ml recombinant human insulin, 5.5 μg/ml human transferrin, 0.005 μg/ml Na2SeO3 (ITS without linoleic acid, Sigma Aldrich), 50 nM hydrocortisone, 100 U/ml penicillin, and 100 μg/ml streptomycin (Pen/Strep, Thermo Fisher). After two days, the outgrown primary murine tubular cells were washed with PBS and a fresh medium was added. When the number of primary murine tubular cells reached approximately 50% confluence, the cells were removed from the six-well plates using Trypsin-EDTA (Thermo Fisher), washed with medium and a Ficoll Paque Plus (Sigma Aldrich) gradient was performed to remove any dead cells, and debris from the murine renal tubules. Cells were washed twice with PBS and seeded in six-well plates with medium. Once the number of grown cells reached approximately 50% confluence, they were washed with PBS and treated with type 2 FIN: RSL3 (also see Supplementary Table 2 for details). After 14 h, medium and cells were collected and prepared for LDH release assay. Images of the treated primary murine tubular cells were obtained using a 20×/0.30 PH1 objective on a Leica DMi1 microscope."}, "[4]": {"test_system": "NIH3T3 cells", "assay": "Ferroptosis inducers (FINs)/ferroptocide, 7-AAD/annexin V flow cytometry", "format": "cell-based, murine", "conditions": "alone (DMSO) or with Fer-1 1 µM, Nec-1s 30 µM, Nec-1f 30 µM", "procedure": "(§1) To induce necroptosis in a human cell line, HT29 cells were stimulated at the indicated time points with 20 ng/ml human TNFα (Biolegend), 1 μM SMAC-mimetics (Birinapant, Chemietek), and 20 μM zVAD-fmk (Selleckchem, herein referred to as zVAD). For the induction of necroptosis in NIH3T3 cells, cells were incubated with 20 ng/ml TNF-α and 20 μM zVAD for indicated time points. […] Cells were seeded in six-well plates or petri dishes. […] After indicated time points, cells were collected and prepared for flow cytometry, immunoblotting, and/or LDH release assays.\n(§2) Cells were harvested and the pellets were washed twice in PBS and stained with 5 μl of 7-AAD (BD Biosciences) and 5 μl of annexin-V-FITC (BD Biosciences) added to 100 μl annexin-V binding buffer (BD Biosciences). After 15 min, cells were recorded on the LSRII with the FACS Diva 6.1.1 software (BD Biosciences) and subsequently analyzed with the FlowJo v10 software (Tree Star)."}, "[5]": {"test_system": "NIH3T3 cells", "assay": "Ferroptosis inducers (FINs)/ferroptocide, 7-AAD/annexin V flow cytometry", "format": "cell-based, murine", "conditions": "for cells in 7-AAD/annexin V flow cytometry (FigS9b): individual replicates"}, "[6]": {"test_system": "Mouse cortical tubule cells (MCT)", "assay": "FINs/ferroptocide, 7-AAD/annexin V flow cytometry", "format": "cell-based", "conditions": "for double-negative events (7-AAD/annexin V): MCT, alone (DMSO) or with Fer-1 1 µM, Nec-1s 30 µM, Nec-1f 30 µM", "procedure": "as §1, §2"}, "[7]": {"test_system": "HT1080 cells", "assay": "CellTiter-Glo luminescent cell viability assay (ATP), dose-response", "format": "cell-based, human", "procedure": "Cells were plated in an opaque-walled 96-well plate and treatment with ferroptosis inducers and/or ferroptosis inhibitors was initiated 24 h later. […] Here, the reaction agent was directly added to the wells, mixed on an orbital shaker for 2 min, and then incubated at room temperature for 10 min. The luminescence was detected using a Promega GloMax® instrument."}, "[8]": {"test_system": "HT29 cells", "assay": "TSZ-induced necroptosis, 7-AAD/annexin V flow cytometry", "format": "cell-based, human", "conditions": "HT29, TSZ; Nec-1f 10 µM", "procedure": "as §1, §2"}}, "note": "Where “and” joins values, the source holds several entries; their conditions need not be identical. Equal entries are not always repeated. Entries after “also recorded” stand apart in the source; their conditions may differ.", "data": [{"smiles": "CCOC(=O)c1ccc(NC2CCCCC2)c(N)c1", "note": "[Fer-1, ferrostatin-1]", "values": [{"measurement": "ΔSTY-BODIPY", "setting": "[1]; time 53820 s", "result": -0.3745, "unit": "µM"}, {"measurement": "ΔSTY-BODIPY", "setting": "[1]; time 53880 s", "result": -0.3737, "unit": "µM"}, {"measurement": "ΔSTY-BODIPY", "setting": "[1]; time 53940 s", "result": -0.3729, "unit": "µM"}, {"measurement": "ΔSTY-BODIPY", "setting": "[1]; time 54000 s", "result": -0.3705, "unit": "µM"}, {"measurement": "Survival after severe renal IRI vs vehicle (Kaplan-Meier, words)", "setting": "[2]", "result": "not statistically significant"}, {"measurement": "Effect on RSL3-induced LDH release", "setting": "[3]", "result": "prevented; also recorded: complete reversal of LDH release"}, {"measurement": "double-negative events (7-AAD/annexin V)", "setting": "[4]; NIH3T3, 1.13 µM RSL3 6 h", "result": "90.9% and 88.3% and 95.7% and 97.7% and 79%"}, {"measurement": "double-negative events (7-AAD/annexin V)", "setting": "[4]; NIH3T3, 5 µM erastin 24 h", "result": "93.3% and 78.4% and 95.1% and 95.2%"}, {"measurement": "double-negative events (7-AAD/annexin V)", "setting": "[4]; NIH3T3, 10 µM FIN56 24 h", "result": "94.7% and 91.5% and 96.4%"}, {"measurement": "double-negative events (7-AAD/annexin V)", "setting": "[4]; NIH3T3, 10 µM FINO2 24 h", "result": "79% and 79.9% and 82.9% and 91%"}, {"measurement": "cells in 7-AAD/annexin V flow cytometry (FigS9b)", "setting": "[5]; Erastin-induced ferroptosis", "result": "95.0% and 94.0% and 92.0%"}, {"measurement": "cells in 7-AAD/annexin V flow cytometry (FigS9b)", "setting": "[5]; FIN56-induced ferroptosis", "result": "94.1% and 94.0%"}, {"measurement": "cells in 7-AAD/annexin V flow cytometry (FigS9b)", "setting": "[5]; FINO2-induced ferroptosis", "result": "90.0% and 90.2%"}, {"measurement": "cells in 7-AAD/annexin V flow cytometry (FigS9b)", "setting": "[5]; Ferroptocide-induced cell death", "result": "93.0% and 79.0%"}, {"measurement": "double-negative events (7-AAD/annexin V)", "setting": "[5]; NIH3T3, 10 µM ferroptocide 24 h, alone (DMSO) or with Fer-1 1 µM, Nec-1s 30 µM, Nec-1f 30 µM", "result": "76.5% and 92.2% and 95.9% and 92.6%"}, {"measurement": "cells in 7-AAD/annexin V flow cytometry (FigS9b)", "setting": "[5]; RSL3-induced ferroptosis", "result": "95.0% and 92.0%"}, {"measurement": "Effect on RSL3- and FINO2-induced ferroptosis", "setting": "[6]; MCT cells", "result": "reversed"}, {"measurement": "double-negative events (7-AAD/annexin V)", "setting": "[6]; 1.13 µM RSL3 6 h", "result": "96.6% and 93.5% and 69%"}, {"measurement": "double-negative events (7-AAD/annexin V)", "setting": "[6]; 5 µM erastin 24 h", "result": "79.5% and 84.2% and 82.8% and 86.9%"}, {"measurement": "double-negative events (7-AAD/annexin V)", "setting": "[6]; 10 µM FIN56 24 h", "result": "89.5% and 93.6% and 90.5%"}, {"measurement": "double-negative events (7-AAD/annexin V)", "setting": "[6]; 10 µM FINO2 24 h", "result": "96% and 77.1% and 92.8% and 95.9% and 89.7%"}, {"measurement": "double-negative events (7-AAD/annexin V)", "setting": "[6]; 10 µM ferroptocide 24 h", "result": "86.2% and 85.5% and 72.2% and 89.6% and 67.8% and 73.5%"}, {"measurement": "ATP luminescence (CellTiterGlo)", "setting": "[7]; HT1080 + Erastin, inhibitor concentration 0.01 (unit not given)", "result": 8.302, "unit": "%"}, {"measurement": "ATP luminescence (CellTiterGlo)", "setting": "[7]; HT1080 + Erastin, inhibitor concentration 0.1 (unit not given)", "result": 100.351, "unit": "%"}, {"measurement": "ATP luminescence (CellTiterGlo)", "setting": "[7]; HT1080 + Erastin, inhibitor concentration 1 (unit not given)", "result": 97.0601, "unit": "%"}, {"measurement": "ATP luminescence (CellTiterGlo)", "setting": "[7]; HT1080 + Erastin, inhibitor concentration 10 (unit not given)", "result": 92.1314, "unit": "%"}, {"measurement": "ATP luminescence (CellTiterGlo)", "setting": "[7]; HT1080 + Erastin, inhibitor concentration 30 (unit not given)", "result": 88.0064, "unit": "%"}, {"measurement": "ATP luminescence (CellTiterGlo)", "setting": "[7]; HT1080 + Ferroptocide, inhibitor concentration 0.01 (unit not given)", "result": "2.0385% and 1.258%"}, {"measurement": "ATP luminescence (CellTiterGlo)", "setting": "[7]; HT1080 + RSL3, inhibitor concentration 0.01 (unit not given)", "result": "46.842% and 51.9737%"}, {"measurement": "ATP luminescence (CellTiterGlo)", "setting": "[7]; HT1080 + RSL3, inhibitor concentration 0.1 (unit not given)", "result": "61.3859% and 117.078%"}, {"measurement": "ATP luminescence (CellTiterGlo)", "setting": "[7]; HT1080 + RSL3, inhibitor concentration 1 (unit not given)", "result": "60.0511% and 109.723%"}, {"measurement": "ATP luminescence (CellTiterGlo)", "setting": "[7]; HT1080 + RSL3, inhibitor concentration 10 (unit not given)", "result": "58.2722% and 113.348%"}, {"measurement": "Protection against TSZ-induced necroptosis (7-AAD/annexin V, words)", "setting": "[8]", "result": "did not provide protection against necroptosis"}]}]}
